Source: ChEMBL document CHEMBL5365437, “Cannabinoformins: Designing Biguanide-Embedded, Orally Available, Peripherally Selective Cannabinoid-1 Receptor Antagonists for Metabolic Syndrome Disorders” (J Med Chem, 2023)

What was measured:
Cannabinoid receptor 1 [1] = molecular target: T1, Cannabinoid receptor 1 (Mus musculus, UniProt P47746); test: Displacement of [3H][…] from CB1 receptor in mouse brain plasma membrane by radioligand displacement analysis; format: cell membranes
[2] = molecular target: T2, AMP-activated protein kinase (AMPK) alpha-1/beta-1/gamma-1 (Homo sapiens) (UniProt P54619+Q9Y478+Q13131); test: Activation of recombinant AMPK alpha1/beta1/gamma1 (unknown origin) at 1 uM relative to control; format: protein-complex assay; details: filed as activator
Cannabinoid receptor 1 [3] = molecular target: T1, Cannabinoid receptor 1; test: Antagonist activity at CB1 receptor in mouse brain membrane assessed as inhibition of […]-induced GTPgammaS binding by [35S]GTPgammaS binding analysis; format: functional, cell membranes
[4] = Drug uptake in C57BL/6J mouse brain at 10 mg/kg, po measured after 1 hr by LC-MS/MS analysis; format: ADME, organism-based; details: read-out: Drug uptake
[5] = Drug uptake in C57BL/6J mouse plasma at 10 mg/kg, po measured after 1 hr by LC-MS/MS analysis; format: ADME, organism-based
[6] = molecular target: T2, AMP-activated protein kinase (AMPK) alpha-1/beta-1/gamma-1 (Homo sapiens); test: Activation of recombinant AMPK alpha1/beta1/gamma1 (unknown origin) at 10 uM relative to control; format: protein-complex assay; details: filed as activator

T1 sequence (P47746 whole entry): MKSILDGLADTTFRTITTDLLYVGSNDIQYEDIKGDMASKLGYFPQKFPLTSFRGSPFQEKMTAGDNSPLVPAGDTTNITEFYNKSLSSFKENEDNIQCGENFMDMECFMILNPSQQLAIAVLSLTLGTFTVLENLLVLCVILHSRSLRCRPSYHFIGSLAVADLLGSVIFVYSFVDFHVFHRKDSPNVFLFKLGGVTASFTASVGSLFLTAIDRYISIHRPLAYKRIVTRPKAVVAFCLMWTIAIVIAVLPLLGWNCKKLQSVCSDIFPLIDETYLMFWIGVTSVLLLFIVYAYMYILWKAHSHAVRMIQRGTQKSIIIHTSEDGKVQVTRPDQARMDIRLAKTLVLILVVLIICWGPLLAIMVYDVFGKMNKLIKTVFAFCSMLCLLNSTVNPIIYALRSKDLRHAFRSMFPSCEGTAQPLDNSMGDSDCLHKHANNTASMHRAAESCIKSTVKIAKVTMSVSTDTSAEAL
T2 sequence (P54619 whole entry): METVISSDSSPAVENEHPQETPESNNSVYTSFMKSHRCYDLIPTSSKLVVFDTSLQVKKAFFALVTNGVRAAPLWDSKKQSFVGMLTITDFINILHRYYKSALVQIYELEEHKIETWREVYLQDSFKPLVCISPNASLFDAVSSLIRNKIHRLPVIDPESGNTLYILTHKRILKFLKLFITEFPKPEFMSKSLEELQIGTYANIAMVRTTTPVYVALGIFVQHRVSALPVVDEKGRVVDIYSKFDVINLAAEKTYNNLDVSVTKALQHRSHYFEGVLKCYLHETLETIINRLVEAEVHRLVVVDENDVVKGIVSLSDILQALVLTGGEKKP
T2 sequence (Q13131 whole entry partner): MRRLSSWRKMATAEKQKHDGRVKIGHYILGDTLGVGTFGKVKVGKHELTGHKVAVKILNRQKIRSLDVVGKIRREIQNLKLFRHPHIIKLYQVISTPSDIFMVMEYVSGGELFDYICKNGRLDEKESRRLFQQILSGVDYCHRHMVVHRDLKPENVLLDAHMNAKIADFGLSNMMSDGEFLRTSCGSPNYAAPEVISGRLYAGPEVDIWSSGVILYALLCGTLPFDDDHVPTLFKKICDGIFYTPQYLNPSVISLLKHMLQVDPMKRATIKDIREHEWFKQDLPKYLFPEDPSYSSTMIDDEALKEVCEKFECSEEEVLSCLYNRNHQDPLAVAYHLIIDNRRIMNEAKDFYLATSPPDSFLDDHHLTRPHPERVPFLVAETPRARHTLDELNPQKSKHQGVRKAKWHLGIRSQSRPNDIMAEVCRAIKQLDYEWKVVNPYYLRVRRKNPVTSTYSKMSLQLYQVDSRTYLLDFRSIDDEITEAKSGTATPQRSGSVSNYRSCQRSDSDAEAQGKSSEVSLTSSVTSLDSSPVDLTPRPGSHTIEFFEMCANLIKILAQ
T2 sequence (Q9Y478 2-270 partner limits assumed): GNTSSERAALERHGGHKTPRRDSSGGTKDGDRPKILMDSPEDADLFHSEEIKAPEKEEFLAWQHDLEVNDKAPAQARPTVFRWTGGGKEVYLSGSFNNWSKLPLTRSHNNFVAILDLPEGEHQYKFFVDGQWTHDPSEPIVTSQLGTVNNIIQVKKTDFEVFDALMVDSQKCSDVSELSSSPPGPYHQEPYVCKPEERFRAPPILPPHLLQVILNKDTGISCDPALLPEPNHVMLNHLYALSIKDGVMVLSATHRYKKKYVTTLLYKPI

| SMILES | Ki (Cannabinoid receptor 1 [1]) [nM] | Activity [2] [%] | IC50 (Cannabinoid receptor 1 [3]) [nM] | concentration at 1 h [4] [ng/g] | concentration at 1 h [5] [ng/mL] | Activity [6] [%] |
| --- | --- | --- | --- | --- | --- | --- |
| CC(=O)N/C(N)=N/C(=N/S(=O)(=O)N1CCC(F)(F)CC1)N1CC(c2ccccc2)C(c2ccc(Cl)cc2)=N1 (centres undefined) | 0.7 | 142 | 2 | 4 | 26 |  |
| CC(=O)N/C(N)=N/C(=N/S(=O)(=O)N1CCOCC1)N1CC(c2ccccc2)C(c2ccc(Cl)cc2)=N1 (centres undefined) | 2.3 | 162 | 2 |  |  |  |
| CC(=O)N/C(N)=N/C(=N/S(=O)(=O)c1ccc2ccccc2c1)N1CC(c2ccccc2)C(c2ccc(Cl)cc2)=N1 (centres undefined) | 16 | 117 | 6.1 |  |  |  |
| N/C(=N\C(=N\S(=O)(=O)c1ccc(C(F)(F)F)cc1)N1CC(c2ccccc2)C(c2ccc(Cl)cc2)=N1)NC(=O)c1ccccc1 (centres undefined) | 3 | 101 | 6.1 |  |  |  |
| N/C(=N\C(=N\S(=O)(=O)c1ccc2ccccc2c1)N1CC(c2ccccc2)C(c2ccc(Cl)cc2)=N1)NC(=O)c1ccccc1 (centres undefined) | 8.1 | 90 | 66 |  |  |  |
| CC(=O)N/C(N)=N/C(=N/S(=O)(=O)N1CCCCC1)N1CC(c2ccccc2)C(c2ccc(Cl)cc2)=N1 (centres undefined) | 1.6 | 152 | 7 | 1.9 | 44 |  |
| CC(=O)N/C(N)=N/C(=N/S(=O)(=O)c1ccc2ccccc2c1)N1C[C@@H](c2ccccc2)C(c2ccc(Cl)cc2)=N1 | 78 |  |  |  |  |  |
| CC(=O)N/C(N)=N/C(=N/S(=O)(=O)c1ccc(C(C)C)cc1)N1CC(c2ccccc2)C(c2ccc(Cl)cc2)=N1 (centres undefined) | 3.7 | 119 | 1.7 |  |  |  |
| CC(=O)N/C(N)=N/C(=N/S(=O)(=O)N1CCC(C(F)(F)F)CC1)N1C[C@@H](c2ccccc2)C(c2ccc(Cl)cc2)=N1 | 37 |  |  |  |  | 114 |
| CC(=O)N/C(N)=N/C(=N/S(=O)(=O)c1ccc(OC(F)(F)F)cc1)N1CC(c2ccccc2)C(c2ccc(Cl)cc2)=N1 (centres undefined) |  | 125 | 3.2 |  |  |  |
| CCC(=O)N/C(N)=N/C(=N/S(=O)(=O)c1ccc(C(F)(F)F)cc1)N1CC(c2ccccc2)C(c2ccc(Cl)cc2)=N1 (centres undefined) | 3.3 | 96 | 5.5 |  |  |  |
| CC(=O)N/C(N)=N/C(=N/S(=O)(=O)c1ccccc1)N1CC(c2ccccc2)C(c2ccc(Cl)cc2)=N1 (centres undefined) | 6.8 | 93 | 21 |  |  |  |
| COc1ccc(S(=O)(=O)/N=C(/N=C(\N)NC(=O)c2ccccc2)N2CC(c3ccccc3)C(c3ccc(Cl)cc3)=N2)cc1 (centres undefined) | 8.5 | 98 | 68 |  |  |  |
| N/C(=N\C(=N\S(=O)(=O)c1ccc(Cl)cc1)N1CC(c2ccccc2)C(c2ccc(Cl)cc2)=N1)NCC12C[C@H]3C[C@@H](C1)C[C@@H](C2)C3 (some centres undefined) | > 1000 |  |  |  |  |  |
| CCN(CC)S(=O)(=O)/N=C(/N=C(\N)NC(C)=O)N1CC(c2ccccc2)C(c2ccc(Cl)cc2)=N1 (centres undefined) | 1.3 | 152 | 2.1 |  |  |  |
| N/C(=N\C(=N\S(=O)(=O)c1ccc(OC(F)(F)F)cc1)N1CC(c2ccccc2)C(c2ccc(Cl)cc2)=N1)NC(=O)c1ccccc1 (centres undefined) | 13 | 104 | 86 |  |  |  |
| CN/C(=N\S(=O)(=O)c1ccc(Cl)cc1)N1C[C@H](c2ccccc2)C(c2ccc(Cl)cc2)=N1 |  |  |  |  |  | 100 |
| CN=C(NS(=O)(=O)c1ccc(Cl)cc1)N1C[C@H](c2ccccc2)C(c2ccc(Cl)cc2)=N1 [IBIPINABANT] | 8.1 |  |  |  |  |  |
| N/C(=N\C(=N\S(=O)(=O)c1ccc(I)cc1)N1CC(c2ccccc2)C(c2ccc(Cl)cc2)=N1)NC(=O)c1ccccc1 (centres undefined) | 5.5 | 96 | 14 |  |  |  |
| CC(=O)N/C(N)=N/C(=N/S(=O)(=O)N1CCC(C(F)(F)F)CC1)N1CC(c2ccccc2)C(c2ccc(Cl)cc2)=N1 (centres undefined) | 0.8 | 116 | 2.5 | 0.21 | 28 |  |
| CC(=O)N/C(N)=N/C(=N/S(=O)(=O)c1ccc(OC(F)(F)F)cc1)N1C[C@@H](c2ccccc2)C(c2ccc(Cl)cc2)=N1 | 5.3 |  |  |  |  | 114 |
| Cc1ccc(S(=O)(=O)/N=C(/N=C(\N)NC(=O)c2ccccc2)N2CC(c3ccccc3)C(c3ccc(Cl)cc3)=N2)cc1 (centres undefined) | 25 | 102 | 59 |  |  |  |

Second part, the compound after the results:

| Ki (Cannabinoid receptor 1 [1]) [nM] | Activity [2] [%] | IC50 (Cannabinoid receptor 1 [3]) [nM] | concentration at 1 h [4] [ng/g] | concentration at 1 h [5] [ng/mL] | Activity [6] [%] | SMILES |
| --- | --- | --- | --- | --- | --- | --- |
| 0.8 | 100 | 25 |  |  |  | N/C(=N\C(=N\S(=O)(=O)c1ccc(Cl)cc1)N1CC(c2ccccc2)C(c2ccc(Cl)cc2)=N1)NC(=O)c1ccccc1 (centres undefined) |
|  | 118 | 1.4 |  |  |  | CC(=O)N/C(N)=N/C(=N/S(=O)(=O)c1ccc(C(C)(C)C)cc1)N1CC(c2ccccc2)C(c2ccc(Cl)cc2)=N1 (centres undefined) |
| 8.6 | 96 | 19 |  |  |  | CC(=O)N/C(N)=N/C(=N/S(=O)(=O)c1ccc(C)cc1)N1CC(c2ccccc2)C(c2ccc(Cl)cc2)=N1 (centres undefined) |
| 2.9 | 142 | 3.1 |  |  |  | CC(=O)N/C(N)=N/C(=N/S(=O)(=O)c1ccc(Cl)cc1)N1CC(c2ccccc2)C(c2ccc(Cl)cc2)=N1 (centres undefined) |
|  |  |  |  |  | 149 | N/C(=N\C(=N\S(=O)(=O)c1ccc(Cl)cc1)N1CC(c2ccccc2)C(c2ccc(Cl)cc2)=N1)NCc1ccccc1 (centres undefined) |
|  | 113 | 53 |  |  | 113 | CCN(CC)/C(N)=N/C(=N/S(=O)(=O)c1ccc(Cl)cc1)N1CC(c2ccccc2)C(c2ccc(Cl)cc2)=N1 (centres undefined) |
|  |  |  |  |  | 155 | COCCN(CCOC)/C(N)=N/C(=N/S(=O)(=O)c1ccc(Cl)cc1)N1CC(c2ccccc2)C(c2ccc(Cl)cc2)=N1 (centres undefined) |
|  | 175 | 396 |  |  | 175 | CCCN(CCC)/C(N)=N/C(=N/S(=O)(=O)c1ccc(Cl)cc1)N1CC(c2ccccc2)C(c2ccc(Cl)cc2)=N1 (centres undefined) |
| 2.8 | 91 | 6 |  |  |  | CCC(=O)N/C(N)=N/C(=N/S(=O)(=O)c1ccc(Cl)cc1)N1CC(c2ccccc2)C(c2ccc(Cl)cc2)=N1 (centres undefined) |
|  | 126 | 230 |  |  | 126 | CC(C)(C)N/C(N)=N/C(=N/S(=O)(=O)c1ccc(Cl)cc1)N1CC(c2ccccc2)C(c2ccc(Cl)cc2)=N1 (centres undefined) |
|  |  |  |  |  | 135 | N/C(=N\C(=N\S(=O)(=O)c1ccc(Cl)cc1)N1CC(c2ccccc2)C(c2ccc(Cl)cc2)=N1)N1CCCC1 (centres undefined) |
| 103 |  |  |  |  | 130 | CC(=O)N/C(N)=N/C(=N/S(=O)(=O)c1ccc(Cl)cc1)N1C[C@@H](c2ccccc2)C(c2ccc(Cl)cc2)=N1 |
| 0.6 | 94 | 4.9 |  |  |  | CC(=O)N/C(N)=N/C(=N/S(=O)(=O)c1ccc(Br)cc1)N1CC(c2ccccc2)C(c2ccc(Cl)cc2)=N1 (centres undefined) |
|  |  |  |  |  | 136 | N/C(=N\C(=N\S(=O)(=O)c1ccc(Cl)cc1)N1CC(c2ccccc2)C(c2ccc(Cl)cc2)=N1)NCCc1ccccc1 (centres undefined) |
|  |  |  |  |  | 153 | CN(Cc1ccccc1)/C(N)=N/C(=N/S(=O)(=O)c1ccc(Cl)cc1)N1CC(c2ccccc2)C(c2ccc(Cl)cc2)=N1 (centres undefined) |
|  |  |  |  |  | 166 | N/C(=N\C(=N\S(=O)(=O)c1ccc(Cl)cc1)N1CC(c2ccccc2)C(c2ccc(Cl)cc2)=N1)N1CCCCC1 (centres undefined) |

| Ki (Cannabinoid receptor 1 [1]) [nM] | Activity [2] [%] | IC50 (Cannabinoid receptor 1 [3]) [nM] | concentration at 1 h [4] [ng/g] | concentration at 1 h [5] [ng/mL] | Activity [6] [%] | SMILES |
| --- | --- | --- | --- | --- | --- | --- |
|  |  |  |  |  | 127 | N/C(=N\C(=N\S(=O)(=O)c1ccc(Cl)cc1)N1CC(c2ccccc2)C(c2ccc(Cl)cc2)=N1)N1CCOCC1 (centres undefined) |
|  | 124 | 47 |  |  | 124 | CN(C)/C(N)=N/C(=N/S(=O)(=O)c1ccc(Cl)cc1)N1CC(c2ccccc2)C(c2ccc(Cl)cc2)=N1 (centres undefined) |
|  |  |  |  |  | 172 | CCCCN(CC)/C(N)=N/C(=N/S(=O)(=O)c1ccc(Cl)cc1)N1CC(c2ccccc2)C(c2ccc(Cl)cc2)=N1 (centres undefined) |
| 0.4 | 91 | 5.8 |  |  |  | CC(=O)N/C(N)=N/C(=N/S(=O)(=O)c1ccc(C#N)cc1)N1CC(c2ccccc2)C(c2ccc(Cl)cc2)=N1 (centres undefined) |
|  |  |  |  |  | 157 | C=CCN(CC=C)/C(N)=N/C(=N/S(=O)(=O)c1ccc(Cl)cc1)N1CC(c2ccccc2)C(c2ccc(Cl)cc2)=N1 (centres undefined) |
|  |  |  |  |  | 182 | CN1CCN(/C(N)=N/C(=N/S(=O)(=O)c2ccc(Cl)cc2)N2CC(c3ccccc3)C(c3ccc(Cl)cc3)=N2)CC1 (centres undefined) |
|  | 100 | 84 |  |  | 100 | CC(C)(N/C(N)=N/C(=N/S(=O)(=O)c1ccc(Cl)cc1)N1CC(c2ccccc2)C(c2ccc(Cl)cc2)=N1)c1ccccc1 (centres undefined) |
| 3.2 | 121 | 2.8 |  |  |  | CC(=O)N/C(N)=N/C(=N/S(=O)(=O)c1ccc(I)cc1)N1CC(c2ccccc2)C(c2ccc(Cl)cc2)=N1 (centres undefined) |
|  |  |  |  |  | 156 | COCCN/C(N)=N/C(=N/S(=O)(=O)c1ccc(Cl)cc1)N1CC(c2ccccc2)C(c2ccc(Cl)cc2)=N1 (centres undefined) |
| 55 |  |  |  |  | 122 | CC(=O)N/C(N)=N/C(=N/S(=O)(=O)c1ccc(I)cc1)N1C[C@@H](c2ccccc2)C(c2ccc(Cl)cc2)=N1 |
| 415 |  |  |  |  |  | NC(N)=N/C(=N/S(=O)(=O)c1ccc(Cl)cc1)N1CC(c2ccccc2)C(c2ccc(Cl)cc2)=N1 (centres undefined) |
|  |  |  |  |  | 139 | CN/C(N)=N/C(=N/S(=O)(=O)c1ccc(Cl)cc1)N1CC(c2ccccc2)C(c2ccc(Cl)cc2)=N1 (centres undefined) |
| > 1000 |  |  |  |  |  | N/C(=N\C(=N\S(=O)(=O)c1ccc(Cl)cc1)N1CC(c2ccccc2)C(c2ccc(Cl)cc2)=N1)NC12C[C@H]3C[C@@H](C1)C[C@@H](C2)C3 (some centres undefined) |
| 2.3 | 95 | 10 |  |  |  | CC(=O)N/C(N)=N/C(=N/S(=O)(=O)c1ccc(F)cc1)N1CC(c2ccccc2)C(c2ccc(Cl)cc2)=N1 (centres undefined) |
| 13 | 98 | 16 |  |  |  | COc1ccc(S(=O)(=O)/N=C(/N=C(\N)NC(C)=O)N2CC(c3ccccc3)C(c3ccc(Cl)cc3)=N2)cc1 (centres undefined) |
|  |  |  |  |  | 145 | CC(C)N/C(N)=N/C(=N/S(=O)(=O)c1ccc(Cl)cc1)N1CC(c2ccccc2)C(c2ccc(Cl)cc2)=N1 (centres undefined) |
